The source made the active and inactive calls.
How the values were obtained:
[1] = Luminescence Cell-Based Dose Retest to Confirm Inhibitors of Cancer Stem Cells. [Related pubchem assays (depositor defined):AID2717, AID2721]; format: functional; conditions: Homo sapiens
Phospholipase A2 = Phospholipase A2 (Homo sapiens, UniProt P04054); test: phospholipase A2 activity inhibition – biochemical, set 2, counter-screen for ATG4B inhibitor project, dose response (AID 588586); format: functional
Cysteine protease ATG4B = Cysteine protease ATG4B (Homo sapiens, UniProt Q9Y4P1); test: autophagin-1 cysteine protease inhibition – biochemical, fluorescence, set 2, dose response (AID 588584); format: functional
Sequence of Cysteine protease ATG4B (Q9Y4P1 whole entry): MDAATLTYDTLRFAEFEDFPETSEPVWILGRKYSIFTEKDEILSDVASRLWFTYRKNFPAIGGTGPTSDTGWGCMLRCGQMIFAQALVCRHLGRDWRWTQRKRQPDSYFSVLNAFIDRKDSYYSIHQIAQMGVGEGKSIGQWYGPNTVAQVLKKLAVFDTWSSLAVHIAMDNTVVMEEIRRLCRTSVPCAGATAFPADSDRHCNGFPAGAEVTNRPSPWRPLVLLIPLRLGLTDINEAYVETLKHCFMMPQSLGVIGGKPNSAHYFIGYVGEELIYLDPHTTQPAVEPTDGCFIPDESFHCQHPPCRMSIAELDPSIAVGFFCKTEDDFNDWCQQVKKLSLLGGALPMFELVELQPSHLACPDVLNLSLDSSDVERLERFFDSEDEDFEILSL

[2] = target: T1, Tyrosine-protein phosphatase non-receptor type 7 (Homo sapiens, UniProt P35236); format: functional
T1 sequence (P35236 whole entry): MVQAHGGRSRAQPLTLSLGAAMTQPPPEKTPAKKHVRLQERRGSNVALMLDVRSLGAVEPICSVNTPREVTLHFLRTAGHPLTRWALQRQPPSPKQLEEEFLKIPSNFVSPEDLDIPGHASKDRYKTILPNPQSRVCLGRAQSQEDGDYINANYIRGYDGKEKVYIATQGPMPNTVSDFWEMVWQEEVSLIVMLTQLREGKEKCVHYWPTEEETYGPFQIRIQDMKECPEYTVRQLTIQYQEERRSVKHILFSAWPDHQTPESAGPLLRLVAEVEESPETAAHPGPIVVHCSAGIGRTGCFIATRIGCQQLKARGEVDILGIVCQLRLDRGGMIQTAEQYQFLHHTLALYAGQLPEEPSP

[3] = target: T2, Tyrosine-protein phosphatase non-receptor type 22 (Homo sapiens, UniProt Q9Y2R2); test: PTPN22 lymphoid phosphatase activity blockers – biochemical, fluorescence intensity, uHTS (AID 1779)
T2 sequence (Q9Y2R2 whole entry): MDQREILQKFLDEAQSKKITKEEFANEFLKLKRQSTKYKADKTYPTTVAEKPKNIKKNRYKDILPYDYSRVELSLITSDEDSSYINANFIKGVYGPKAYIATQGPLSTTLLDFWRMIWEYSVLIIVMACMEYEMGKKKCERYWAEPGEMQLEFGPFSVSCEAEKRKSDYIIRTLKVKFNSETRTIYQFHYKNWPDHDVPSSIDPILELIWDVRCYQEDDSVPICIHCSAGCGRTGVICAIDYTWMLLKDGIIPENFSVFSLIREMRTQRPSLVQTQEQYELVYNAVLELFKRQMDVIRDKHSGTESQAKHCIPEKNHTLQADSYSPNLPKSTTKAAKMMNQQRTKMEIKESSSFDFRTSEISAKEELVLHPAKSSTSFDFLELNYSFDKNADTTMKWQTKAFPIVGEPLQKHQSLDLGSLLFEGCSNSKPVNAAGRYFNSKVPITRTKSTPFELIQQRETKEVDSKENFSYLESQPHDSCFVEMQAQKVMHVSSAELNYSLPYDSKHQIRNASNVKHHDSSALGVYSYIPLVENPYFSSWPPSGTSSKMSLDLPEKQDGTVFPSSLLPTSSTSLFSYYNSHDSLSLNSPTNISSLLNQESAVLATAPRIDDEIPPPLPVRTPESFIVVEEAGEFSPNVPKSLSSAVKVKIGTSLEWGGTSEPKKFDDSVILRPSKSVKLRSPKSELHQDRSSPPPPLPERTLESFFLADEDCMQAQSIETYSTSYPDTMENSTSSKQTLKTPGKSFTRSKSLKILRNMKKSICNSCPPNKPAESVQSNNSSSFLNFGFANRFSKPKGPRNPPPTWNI

[4] = target: T2, Tyrosine-protein phosphatase non-receptor type 22; test: SAR LYP1 Fluorescent Assay using pCAP substrate for In Vitro dose response studies - Set 2. [Related pubchem assays (depositor defined):AID1779, AID1784, AID2135, AID449727]; format: functional
[5] = target: Tyrosine-protein phosphatase non-receptor type 12 (Homo sapiens, UniProt Q05209); test: SAR Selectivity Analysis of small molecule inhibitors of PEST using pCAP in a fluorescence assay. [Related pubchem assays (depositor defined):AID1779, AID1784, AID2135]; format: functional
Sequence of Tyrosine-protein phosphatase non-receptor type 12 (Q05209 whole entry): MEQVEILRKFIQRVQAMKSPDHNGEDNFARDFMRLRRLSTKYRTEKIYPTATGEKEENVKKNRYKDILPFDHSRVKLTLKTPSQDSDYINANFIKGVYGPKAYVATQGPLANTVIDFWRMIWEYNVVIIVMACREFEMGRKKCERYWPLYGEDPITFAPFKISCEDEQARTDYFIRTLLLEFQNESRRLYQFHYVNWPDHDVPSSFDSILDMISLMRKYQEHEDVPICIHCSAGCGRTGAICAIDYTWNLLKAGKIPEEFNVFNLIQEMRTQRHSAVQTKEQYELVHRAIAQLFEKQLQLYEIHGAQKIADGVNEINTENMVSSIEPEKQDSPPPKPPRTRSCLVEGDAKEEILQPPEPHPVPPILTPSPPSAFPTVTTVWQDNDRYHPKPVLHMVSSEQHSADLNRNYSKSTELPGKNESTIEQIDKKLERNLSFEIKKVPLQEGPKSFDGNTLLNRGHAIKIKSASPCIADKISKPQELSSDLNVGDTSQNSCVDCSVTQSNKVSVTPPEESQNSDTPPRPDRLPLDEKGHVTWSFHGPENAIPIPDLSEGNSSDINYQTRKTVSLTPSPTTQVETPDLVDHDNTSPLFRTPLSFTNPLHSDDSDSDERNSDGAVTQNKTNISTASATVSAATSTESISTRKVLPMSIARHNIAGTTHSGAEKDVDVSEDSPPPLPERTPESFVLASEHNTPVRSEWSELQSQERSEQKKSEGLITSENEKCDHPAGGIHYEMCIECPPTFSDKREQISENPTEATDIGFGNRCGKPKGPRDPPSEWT

[6] = target: T2, Tyrosine-protein phosphatase non-receptor type 22; format: functional
[7] = target: T2, Tyrosine-protein phosphatase non-receptor type 22; test: SAR LYP1 Fluorescent Assay using OMFP substrate for In Vitro dose response studies - Set 3. [Related pubchem assays (depositor defined):AID1779, AID1784, AID2140, AID2686]; format: functional
[8] = target: T1, Tyrosine-protein phosphatase non-receptor type 7; test: inhibition of hematopoietic tyrosine phosphatase HePTP – biochemical, set 2, SAR follow-up (AID 449736); format: functional
[9] = target: T2, Tyrosine-protein phosphatase non-receptor type 22; format: functional; remark: listed apart in the source
[10] = target: T2, Tyrosine-protein phosphatase non-receptor type 22; test: PubChem AID 2135
[11] = target: T3, Heat shock factor protein 1 (Mus musculus, UniProt P38532); test: enhancement of HSF1-driven luciferase signal – cell-based, NIH3T3, luminescence, dose retest, confirmation (AID 435004); format: functional;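 further: stress induced by proteasome inhibitor MG132 added 30 min after compound; luciferase reporter driven by HSF1 response element in NIH3T3 cells; actives raise luminescence as potentiators of the MG132 stress response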
T3 sequence (P38532 whole entry): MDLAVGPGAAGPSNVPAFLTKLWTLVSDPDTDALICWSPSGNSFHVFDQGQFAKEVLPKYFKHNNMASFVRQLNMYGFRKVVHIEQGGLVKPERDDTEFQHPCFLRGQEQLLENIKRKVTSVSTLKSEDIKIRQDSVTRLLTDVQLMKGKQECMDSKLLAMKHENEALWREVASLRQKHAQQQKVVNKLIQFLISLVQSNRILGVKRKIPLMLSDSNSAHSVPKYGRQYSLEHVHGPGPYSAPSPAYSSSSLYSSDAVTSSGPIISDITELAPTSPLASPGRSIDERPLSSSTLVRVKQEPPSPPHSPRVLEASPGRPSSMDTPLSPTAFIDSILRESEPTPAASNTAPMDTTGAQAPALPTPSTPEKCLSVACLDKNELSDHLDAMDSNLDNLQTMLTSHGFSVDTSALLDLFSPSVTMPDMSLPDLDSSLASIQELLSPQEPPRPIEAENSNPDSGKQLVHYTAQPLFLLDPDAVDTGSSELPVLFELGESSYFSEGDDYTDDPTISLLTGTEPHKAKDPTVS

[12] = target: T2, Tyrosine-protein phosphatase non-receptor type 22; test: PubChem AID 2140
[13] = target: T2, Tyrosine-protein phosphatase non-receptor type 22; test: SAR LYP1 Fluorescent Assay using OMFP substrate for In Vitro dose response studies - Set 2. [Related pubchem assays (depositor defined):AID1779, AID1784, AID2140, AID449726, AID488869]; format: functional
[14] = target: T4, Apoptotic protease-activating factor 1 (Homo sapiens, UniProt O14727); test: activation of Apaf-1 mediated apoptosis – fluorescent, uHTS hits, dose response (AID 588554); format: functional
T4 sequence (O14727 whole entry): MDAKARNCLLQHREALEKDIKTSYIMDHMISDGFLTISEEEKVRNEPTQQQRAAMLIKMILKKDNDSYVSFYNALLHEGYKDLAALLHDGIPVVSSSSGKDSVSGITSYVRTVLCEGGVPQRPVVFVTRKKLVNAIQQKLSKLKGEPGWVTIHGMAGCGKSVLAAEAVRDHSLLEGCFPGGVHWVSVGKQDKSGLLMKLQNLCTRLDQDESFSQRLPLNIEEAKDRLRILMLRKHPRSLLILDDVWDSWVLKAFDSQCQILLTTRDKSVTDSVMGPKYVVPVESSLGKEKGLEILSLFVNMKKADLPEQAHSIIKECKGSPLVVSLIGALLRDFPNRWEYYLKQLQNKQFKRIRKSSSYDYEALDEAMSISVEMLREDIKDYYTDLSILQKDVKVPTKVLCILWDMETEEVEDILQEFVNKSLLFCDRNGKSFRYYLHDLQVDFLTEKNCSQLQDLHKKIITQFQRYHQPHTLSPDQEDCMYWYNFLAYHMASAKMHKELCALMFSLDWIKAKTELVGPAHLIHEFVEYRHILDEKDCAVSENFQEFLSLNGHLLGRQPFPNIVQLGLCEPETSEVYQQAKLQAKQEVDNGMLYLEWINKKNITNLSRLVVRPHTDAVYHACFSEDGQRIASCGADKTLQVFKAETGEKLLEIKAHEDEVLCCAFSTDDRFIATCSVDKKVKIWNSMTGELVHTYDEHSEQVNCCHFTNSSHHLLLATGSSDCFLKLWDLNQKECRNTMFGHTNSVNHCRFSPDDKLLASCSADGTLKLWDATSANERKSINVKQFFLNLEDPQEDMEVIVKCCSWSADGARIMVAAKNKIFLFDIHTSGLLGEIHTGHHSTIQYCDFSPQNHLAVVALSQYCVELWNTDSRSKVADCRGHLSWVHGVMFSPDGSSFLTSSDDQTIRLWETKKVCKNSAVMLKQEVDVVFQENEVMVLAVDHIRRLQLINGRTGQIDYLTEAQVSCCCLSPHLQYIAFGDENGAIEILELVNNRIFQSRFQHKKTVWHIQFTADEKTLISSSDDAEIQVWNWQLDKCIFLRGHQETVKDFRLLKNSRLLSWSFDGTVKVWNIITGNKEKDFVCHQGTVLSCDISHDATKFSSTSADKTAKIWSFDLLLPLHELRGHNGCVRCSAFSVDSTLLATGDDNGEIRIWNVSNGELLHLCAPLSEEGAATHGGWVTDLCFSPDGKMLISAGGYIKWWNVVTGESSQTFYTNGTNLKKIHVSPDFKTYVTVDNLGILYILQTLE

Escherichia coli = test: microbe, parasite or virus in culture
Keap1/Nrf2 = Keap1/Nrf2 (Homo sapiens, UniProt Q14145); test: disruptors of Keap1 binding to Nrf2 peptide – biochemical, fluorescence polarization, cherry-picked samples, dose response (AID 588683)
Sequence of Keap1/Nrf2 (Q16236 whole entry): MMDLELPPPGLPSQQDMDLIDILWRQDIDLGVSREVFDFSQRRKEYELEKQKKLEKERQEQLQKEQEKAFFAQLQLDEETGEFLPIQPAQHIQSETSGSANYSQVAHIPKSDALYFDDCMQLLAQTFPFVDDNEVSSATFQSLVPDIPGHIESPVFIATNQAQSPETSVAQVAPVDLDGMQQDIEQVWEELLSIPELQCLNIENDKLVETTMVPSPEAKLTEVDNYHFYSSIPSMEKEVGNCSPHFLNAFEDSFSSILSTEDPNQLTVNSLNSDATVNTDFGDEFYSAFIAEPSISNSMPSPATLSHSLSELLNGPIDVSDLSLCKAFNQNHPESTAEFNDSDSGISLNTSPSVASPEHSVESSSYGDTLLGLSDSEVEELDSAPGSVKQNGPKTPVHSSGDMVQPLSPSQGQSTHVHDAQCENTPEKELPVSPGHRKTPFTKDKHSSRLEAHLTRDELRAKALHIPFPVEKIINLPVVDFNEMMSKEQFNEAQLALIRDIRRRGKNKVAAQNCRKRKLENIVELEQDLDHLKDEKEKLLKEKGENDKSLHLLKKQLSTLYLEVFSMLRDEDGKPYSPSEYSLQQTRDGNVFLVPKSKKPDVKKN
Sequence of Keap1/Nrf2 (Q14145 whole entry): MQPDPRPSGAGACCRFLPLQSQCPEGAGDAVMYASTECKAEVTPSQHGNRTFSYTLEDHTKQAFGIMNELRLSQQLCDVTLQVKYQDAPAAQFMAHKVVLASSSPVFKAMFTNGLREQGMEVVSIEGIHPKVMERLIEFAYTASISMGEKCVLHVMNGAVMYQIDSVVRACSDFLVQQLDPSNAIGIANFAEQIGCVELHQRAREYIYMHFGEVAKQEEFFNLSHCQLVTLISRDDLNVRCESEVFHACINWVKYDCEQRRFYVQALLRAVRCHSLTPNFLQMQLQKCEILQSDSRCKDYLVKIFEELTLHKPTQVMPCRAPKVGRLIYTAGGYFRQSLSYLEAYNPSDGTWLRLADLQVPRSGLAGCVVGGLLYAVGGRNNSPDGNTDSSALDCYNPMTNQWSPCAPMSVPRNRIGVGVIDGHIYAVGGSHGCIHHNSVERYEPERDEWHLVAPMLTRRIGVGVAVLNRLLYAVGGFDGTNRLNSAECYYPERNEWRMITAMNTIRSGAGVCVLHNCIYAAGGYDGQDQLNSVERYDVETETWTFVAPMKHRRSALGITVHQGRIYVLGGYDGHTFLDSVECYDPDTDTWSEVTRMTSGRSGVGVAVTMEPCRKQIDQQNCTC

[15] = target: T5, Corticotropin-releasing factor receptor 2/Corticotropin-releasing factor-binding protein (Homo sapiens, UniProt P24387+Q13324); test: Dose Response confirmation of uHTS hits for small molecule antagonists of the CRF-binding protein and CRF-R2 receptor complex.; format: functional; conditions: read-out: IC50_Mean
T5 sequence (Q13324 whole entry): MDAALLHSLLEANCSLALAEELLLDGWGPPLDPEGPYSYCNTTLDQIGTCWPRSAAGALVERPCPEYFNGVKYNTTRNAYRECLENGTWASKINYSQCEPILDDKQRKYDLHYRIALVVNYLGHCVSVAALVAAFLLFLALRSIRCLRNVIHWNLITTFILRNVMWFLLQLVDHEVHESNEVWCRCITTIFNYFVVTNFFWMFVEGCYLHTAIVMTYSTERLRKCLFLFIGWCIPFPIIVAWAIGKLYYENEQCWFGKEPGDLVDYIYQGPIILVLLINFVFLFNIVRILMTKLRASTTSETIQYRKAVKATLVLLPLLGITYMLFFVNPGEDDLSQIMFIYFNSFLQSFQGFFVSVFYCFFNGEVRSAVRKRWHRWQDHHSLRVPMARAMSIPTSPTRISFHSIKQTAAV
T5 sequence (P24387 whole entry): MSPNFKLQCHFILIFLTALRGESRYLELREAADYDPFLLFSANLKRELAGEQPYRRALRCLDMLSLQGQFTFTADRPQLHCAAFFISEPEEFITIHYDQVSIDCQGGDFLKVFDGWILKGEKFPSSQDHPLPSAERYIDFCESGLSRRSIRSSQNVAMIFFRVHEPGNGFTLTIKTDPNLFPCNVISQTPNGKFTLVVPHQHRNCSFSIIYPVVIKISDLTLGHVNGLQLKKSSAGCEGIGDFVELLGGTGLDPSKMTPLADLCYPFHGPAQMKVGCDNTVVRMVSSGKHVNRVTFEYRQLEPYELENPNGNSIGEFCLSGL

[16] = target: T5, Corticotropin-releasing factor receptor 2/Corticotropin-releasing factor-binding protein; test: activators of CRF receptor 2 with binding protein – uHTS hits, confirmation (AID 602473); format: functional; conditions: read-out: EC50_Mean
Fatty acid synthase [17] = target: T6, Fatty acid synthase (Homo sapiens, UniProt P49327); test: inhibition of human FAS-TE enzyme activity – biochemical, endpoint fluorescence intensity, uHTS hits, dose response (AID 624327); format: functional;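 further: fluorescence from hydrolysis of an O-methyl fluorescein acyl ester substrate by the enzyme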
T6 sequence (P49327 whole entry): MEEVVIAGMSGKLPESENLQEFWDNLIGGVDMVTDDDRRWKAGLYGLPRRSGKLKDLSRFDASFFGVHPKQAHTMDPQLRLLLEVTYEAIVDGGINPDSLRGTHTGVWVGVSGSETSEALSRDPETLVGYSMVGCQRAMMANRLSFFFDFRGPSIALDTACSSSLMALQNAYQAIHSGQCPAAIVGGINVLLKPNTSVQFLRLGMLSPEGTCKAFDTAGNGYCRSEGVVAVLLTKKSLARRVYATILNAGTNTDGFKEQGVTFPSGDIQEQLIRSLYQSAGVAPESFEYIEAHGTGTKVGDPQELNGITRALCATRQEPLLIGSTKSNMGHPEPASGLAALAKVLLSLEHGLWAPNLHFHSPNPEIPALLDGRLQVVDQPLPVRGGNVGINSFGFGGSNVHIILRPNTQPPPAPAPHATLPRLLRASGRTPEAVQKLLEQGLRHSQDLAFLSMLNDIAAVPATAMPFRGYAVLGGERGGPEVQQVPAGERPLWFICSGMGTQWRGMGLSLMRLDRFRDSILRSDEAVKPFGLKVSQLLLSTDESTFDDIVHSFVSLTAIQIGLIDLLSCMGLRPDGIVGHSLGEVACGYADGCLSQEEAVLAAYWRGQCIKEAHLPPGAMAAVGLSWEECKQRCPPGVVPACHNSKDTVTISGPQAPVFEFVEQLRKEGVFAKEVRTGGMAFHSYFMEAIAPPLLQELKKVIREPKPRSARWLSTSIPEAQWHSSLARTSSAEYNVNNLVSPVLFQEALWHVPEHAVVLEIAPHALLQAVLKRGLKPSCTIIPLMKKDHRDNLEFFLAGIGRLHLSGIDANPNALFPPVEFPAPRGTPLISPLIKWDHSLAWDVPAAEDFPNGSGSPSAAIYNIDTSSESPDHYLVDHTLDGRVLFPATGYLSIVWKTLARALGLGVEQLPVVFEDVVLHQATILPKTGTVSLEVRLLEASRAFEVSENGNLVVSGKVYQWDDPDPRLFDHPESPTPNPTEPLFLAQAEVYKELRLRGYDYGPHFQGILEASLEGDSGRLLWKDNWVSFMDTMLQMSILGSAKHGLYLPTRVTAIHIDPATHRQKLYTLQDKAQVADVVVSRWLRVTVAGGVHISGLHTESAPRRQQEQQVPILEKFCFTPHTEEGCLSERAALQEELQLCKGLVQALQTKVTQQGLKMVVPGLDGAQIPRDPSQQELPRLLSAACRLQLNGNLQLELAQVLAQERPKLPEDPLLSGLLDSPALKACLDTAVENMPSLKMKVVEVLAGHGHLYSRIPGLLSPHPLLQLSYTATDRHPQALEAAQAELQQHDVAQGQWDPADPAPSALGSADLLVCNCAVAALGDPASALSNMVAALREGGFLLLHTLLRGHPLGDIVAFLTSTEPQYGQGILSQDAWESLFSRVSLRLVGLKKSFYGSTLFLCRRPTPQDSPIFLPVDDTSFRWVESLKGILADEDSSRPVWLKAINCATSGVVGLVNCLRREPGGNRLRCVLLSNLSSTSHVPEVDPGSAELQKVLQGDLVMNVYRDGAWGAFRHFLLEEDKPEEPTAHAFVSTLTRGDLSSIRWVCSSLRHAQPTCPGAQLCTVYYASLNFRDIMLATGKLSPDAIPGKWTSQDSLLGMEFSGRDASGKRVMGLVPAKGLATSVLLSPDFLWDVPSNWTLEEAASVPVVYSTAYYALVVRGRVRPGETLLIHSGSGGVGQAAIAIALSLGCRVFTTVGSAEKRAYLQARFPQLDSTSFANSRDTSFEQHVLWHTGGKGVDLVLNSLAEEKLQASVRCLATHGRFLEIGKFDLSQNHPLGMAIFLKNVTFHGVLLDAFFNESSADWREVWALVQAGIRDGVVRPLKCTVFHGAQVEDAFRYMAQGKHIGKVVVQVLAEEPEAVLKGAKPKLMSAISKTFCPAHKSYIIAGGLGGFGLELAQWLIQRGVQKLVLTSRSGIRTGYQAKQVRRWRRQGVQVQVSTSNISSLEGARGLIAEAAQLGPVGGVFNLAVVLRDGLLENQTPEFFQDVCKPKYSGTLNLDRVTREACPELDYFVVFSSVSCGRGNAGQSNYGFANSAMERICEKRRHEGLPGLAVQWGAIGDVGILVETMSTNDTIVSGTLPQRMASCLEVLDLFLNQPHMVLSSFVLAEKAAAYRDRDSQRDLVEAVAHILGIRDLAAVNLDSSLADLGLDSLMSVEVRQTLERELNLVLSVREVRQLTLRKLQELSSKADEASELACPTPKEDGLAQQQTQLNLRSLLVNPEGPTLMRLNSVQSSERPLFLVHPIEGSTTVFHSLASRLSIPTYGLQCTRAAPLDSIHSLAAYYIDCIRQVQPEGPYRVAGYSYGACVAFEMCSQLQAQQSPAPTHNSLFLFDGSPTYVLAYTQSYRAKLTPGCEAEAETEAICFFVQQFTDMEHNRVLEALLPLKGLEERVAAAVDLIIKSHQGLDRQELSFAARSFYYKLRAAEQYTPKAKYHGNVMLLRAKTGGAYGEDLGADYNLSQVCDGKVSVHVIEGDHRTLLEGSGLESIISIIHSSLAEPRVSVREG

Fatty acid synthase [18] = target: T6, Fatty acid synthase; test: inhibition of human FAS-TE enzyme activity – biochemical, kinetic fluorescence intensity, dose response (AID 624326); format: functional;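 further: rate of fluorescence rise from hydrolysis of a fluorogenic O-methyl fluorescein ester substrate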

Sequence of Phospholipase A2 (P04054 whole entry): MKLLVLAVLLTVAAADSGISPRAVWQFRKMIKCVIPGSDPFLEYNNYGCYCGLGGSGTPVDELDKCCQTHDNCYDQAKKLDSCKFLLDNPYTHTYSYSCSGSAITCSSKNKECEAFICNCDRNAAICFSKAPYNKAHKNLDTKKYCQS

COc1ccc(OC)c(NC(=O)c2nnn(Cc3ccccc3C)c2N)c1
active: AC50 [1] 2.47 µM | IC50 (Phospholipase A2) 13.4 µM | IC50 (Cysteine protease ATG4B) 19.9 µM

N#C/C(=C\c1ccc(OCc2ccc(Cl)cc2)cc1)C(=O)Nc1cccc(C(=O)O)c1
active: IC50 [2] 14.6 µM | IC50 [3] 8.62 µM | IC50 [4] 6.54 µM | IC50 [5] 2.91 µM | IC50 [6] 6.86 µM | IC50 [7] 4.74 µM | IC50 [8] 0.651 µM | IC50 [9] 6.42 µM | IC50 [10] 4.96 µM | EC50 [11] 10.9 µM | IC50 [12] 34.2 µM | IC50 [13] 3.77 µM | EC50 [14] 20.8 µM

CCn1c(=O)c2c3c(sc2n2c(S)nnc12)CCC3
active: AC50 (Escherichia coli) 24.2 µM

COc1ccc(C(C)=NNc2ccc([N+](=O)[O-])cc2S(=O)(=O)Nc2ccccc2C(=O)O)c(OC)c1
active: AC50 (Keap1/Nrf2) 25.7 µM | IC50 [15] 0.754 µM | EC50 [16] 38.6 µM | IC50 (Fatty acid synthase [17]) 13.3 µM | IC50 (Fatty acid synthase [18]) 9.07 µM
